Reference: patent US11142525B2 (Pfizer Inc., priority 2018, dated 2021)
Structures can show the parent of a compound that is named as a salt. Where two headings read alike, the source gives them in different places.

Assays:
[1] = test system: phospho-SLP-76 (Ser376) in Jurkat cells; assay: Phospho-SLP-76 (Ser376) Homogeneous Time Resolved Fluorescence (HTRF) assay in Jurkat cells; type: cell-based; details: Homo sapiens, read-out: SLP76 Assay_IC50
Description: Jurkat cells were seeded at 90,000 cells/well in 90 uL of RPMI1640 growth medium containing 10% FBS and incubated at 37° C. with 5% CO2 overnight. The following day, compounds were serially diluted from a 10 mM top dose for an 11-point 3 fold dilution curve in DMSO. Compounds were intermediately diluted 1:100 into growth media prior to diluting 1:10 on cells for final concentration 10 μM to 0.1 nM in 0.1% DMSO. After 30 minutes pre-treatment with compounds, the cells were stimulated using 200 μg/mL of F(ab)2 complexed anti-CD3 (clone UCTH1) for 15 min at 37° C. with 5% CO2. Stimulation was stopped with ice cold PBS and cells were harvested by centrifugation before lysis in Cisbio lysis buffer (Cisbio, Bedford, Mass.). Lysates were transferred to white, low-volume plates containing anti-phospho-SLP-76-Cryptate plus anti-phospho-SLP-76-d2 HTRF antibodies and incubated overnight at room temperature protected from light according to the manufacturer's protocol (Cisbio, Bedford, Mass.). HTRF was measured on a Perkin Elmer Envision and IC50 values were calculated by concentration-response curve fitting utilizing four-parameter nonlinear regression analyses.

[2] = target: human full-length recombinant HPK1 (Homo sapiens (Human), UniProt Q92918); assay: HPK1 biochemical enzyme assay, microfluidic mobility shift assay (MSA); details: read-out: HPK1 Enzyme Assay_Ki
Description: HPK1 enzyme inhibition was measured using a microfluidic mobility shift assay (MSA). […] The reactions were conducted for 60 min at 37° C., stopped by the addition of 50 μL of 0.015 M EDTA, pH 8, and the extent of reactions (˜15-20% conversion with no inhibitor) was determined after electrophoretic separation of the fluorescently labeled peptide substrate and phosphorylated product on an LabChip EZ Reader II (PerkinElmer, Inc., Waltham, Mass.). […]

[3] = 30 min pre-treatment, anti-CD3 stimulation 15 min, HTRF
[4] = mobility shift assay, 75 μM ATP, Morrison equation, tight-binding competitive inhibition
[5] = Phospho-SLP-76 (Ser376) HTRF, anti-CD3 stimulation

Sequence of human full-length recombinant HPK1 (Q92918 whole entry): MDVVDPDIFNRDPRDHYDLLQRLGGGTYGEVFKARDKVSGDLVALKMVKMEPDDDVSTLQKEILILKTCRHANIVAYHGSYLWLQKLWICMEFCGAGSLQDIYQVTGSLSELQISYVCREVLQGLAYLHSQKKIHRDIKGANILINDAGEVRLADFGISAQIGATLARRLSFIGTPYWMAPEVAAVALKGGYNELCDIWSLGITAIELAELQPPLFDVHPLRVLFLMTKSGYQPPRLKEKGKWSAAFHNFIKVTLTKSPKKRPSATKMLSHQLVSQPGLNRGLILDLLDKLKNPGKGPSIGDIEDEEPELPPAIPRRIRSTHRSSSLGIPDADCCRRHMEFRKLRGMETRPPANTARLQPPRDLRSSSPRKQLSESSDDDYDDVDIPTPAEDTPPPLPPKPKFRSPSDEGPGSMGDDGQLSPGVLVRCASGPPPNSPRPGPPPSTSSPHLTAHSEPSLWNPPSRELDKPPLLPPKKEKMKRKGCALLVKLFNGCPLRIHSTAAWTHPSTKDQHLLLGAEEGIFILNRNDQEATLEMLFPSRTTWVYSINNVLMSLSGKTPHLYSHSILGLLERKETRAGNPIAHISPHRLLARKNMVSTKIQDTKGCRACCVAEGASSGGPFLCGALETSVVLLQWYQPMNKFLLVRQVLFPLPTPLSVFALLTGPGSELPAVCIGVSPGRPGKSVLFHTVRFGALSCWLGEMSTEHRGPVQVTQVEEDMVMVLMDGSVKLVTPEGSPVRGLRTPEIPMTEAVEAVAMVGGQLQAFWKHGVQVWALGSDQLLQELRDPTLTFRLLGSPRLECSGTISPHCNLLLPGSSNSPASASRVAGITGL

Compound | IC50 [1, 3] [nM] | Ki [2, 4] [nM] | IC50 [1, 5] [nM] | Ki ([2]; HPK1 mobility shift assay) [nM]
CN(C)c1cc2c(c(CN)n1)CN(c1cccc(-c3nncn3CC3CC3)n1)C2=O [Example 16, 4-(aminomethyl)-2-{6-[4-(cyclopropylmethyl)-4H-1,2,4-triazol-3-yl]pyridin-2-yl}-6-(dimethylamino)-2,3-dihydro-1H-pyrrolo[3,4-c]pyridin-1-one] | 358 | 0.56 |  | 
CCn1c(C)nnc1-c1cccc(N2Cc3c(cc(N4CCC[C@H]4C)nc3CN)C2=O)n1 [Example 61, 4-(aminomethyl)-2-[6-(4-ethyl-5-methyl-4H-1,2,4-triazol-3-yl)pyridin-2-yl]-6-[(2R)-2-methylpyrrolidin-1-yl]-2,3-dihydro-1H-pyrrolo[3,4-c]pyridin-1-one] | 88 | 0.18 |  | 
CCn1cnnc1-c1cccc(N2Cc3c(cc(N(C)C(C)C)nc3CNC)C2=O)n1 [Example 71, 2-[6-(4-ethyl-4H-1,2,4-triazol-3-yl)pyridin-2-yl]-4-[(methylamino)methyl]-6-[methyl(propan-2-yl)amino]-2,3-dihydro-1H-pyrrolo[3,4-c]pyridin-1-one] |  |  | 40 | 0.18
CCN(CC)c1cc2c(c(CN)n1)CN(c1cccc(-c3nncn3CC)n1)C2=O [Example 75, 4-(aminomethyl)-6-(diethylamino)-2-[6-(4-ethyl-4H-1,2,4-triazol-3-yl)pyridin-2-yl]-2,3-dihydro-1H-pyrrolo[3,4-c]pyridin-1-one] |  |  | 118 | 0.52
CNCc1nc(N2[C@H](C)CC[C@H]2C)cc2c1CN(c1cccc(-c3nnc(C)n3C(C)C)n1)C2=O [Example 116, 6-[(2R,5R)-2,5-dimethylpyrrolidin-1-yl]-4-[(methylamino)methyl]-2-{6-[5-methyl-4-(propan-2-yl)-4H-1,2,4-triazol-3-yl]pyridin-2-yl}-2,3-dihydro-1H-pyrrolo[3,4-c]pyridin-1-one] |  |  | 381 | 1.04
CNCc1nc(N(C)C)cc2c1CN(c1cccc(N3C(=O)OC[C@@H]3C)n1)C2=O [Example 10, 6-(dimethylamino)-4-[(methylamino)methyl]-2-{6-[(4S)-4-methyl-2-oxo-1,3-oxazolidin-3-yl]pyridin-2-yl}-2,3-dihydro-1H-pyrrolo[3,4-c]pyridin-1-one] | 97.6 | 0.26 |  | 
CC[C@H](CC(F)(F)F)n1cnnc1-c1cccc(N2Cc3c(cc(N(C)C(C)C)nc3CNC)C2=O)n1 (single isomer, unassigned) [Example 73, 4-[(methylamino)methyl]-6-[methyl(propan-2-yl)amino]-2-(6-{4-[(3ξ)-1,1,1-trifluoropentan-3-yl]-4H-1,2,4-triazol-3-yl}pyridin-2-yl)-2,3-dihydro-1H-pyrrolo[3,4-c]pyridin-1-one] |  |  | 61 | 0.22
CC(C)c1cc2c(c(CN)n1)CN(c1cccc(N3C(=O)OC[C@@H]3C)n1)C2=O [Example 41, 4-(aminomethyl)-2-{6-[(4S)-4-methyl-2-oxo-1,3-oxazolidin-3-yl]pyridin-2-yl}-6-(propan-2-yl)-2,3-dihydro-1H-pyrrolo[3,4-c]pyridin-1-one] | 315 | 4.6 |  | 
CCCn1cnnc1-c1cccc(N2Cc3c(cc(N(C)CC)nc3CN)C2=O)n1 [Example 56, 4-(aminomethyl)-6-[ethyl(methyl)amino]-2-[6-(4-propyl-4H-1,2,4-triazol-3-yl)pyridin-2-yl]-2,3-dihydro-1H-pyrrolo[3,4-c]pyridin-1-one hydrochloride] | 139 | 0.34 |  | 
CNCc1nc(N2[C@H](C)CC[C@H]2C)cc2c1CN(c1cccc(-c3nncn3C(C)C)n1)C2=O [Example 8, 6-[(2R,5R)-2,5-dimethylpyrrolidin-1-yl]-4-[(methylamino)methyl]-2-{6-[4-(propan-2-yl)-4H-1,2,4-triazol-3-yl]pyridin-2-yl}-2,3-dihydro-1H-pyrrolo[3,4-c]pyridin-1-one] | 89 | 0.25 |  | 

Further lines, results first:

IC50 [1, 3] [nM] | Ki [2, 4] [nM] | IC50 [1, 5] [nM] | Ki ([2]; HPK1 mobility shift assay) [nM] | Compound
147 | 0.38 |  |  | CCN(CC)c1cc2c(c(CN)n1)CN(c1cccc(-c3nncn3C(C)C)n1)C2=O [Example 38, 4-(aminomethyl)-6-(diethylamino)-2-{6-[4-(propan-2-yl)-4H-1,2,4-triazol-3-yl]pyridin-2-yl}-2,3-dihydro-1H-pyrrolo[3,4-c]pyridin-1-one]
 |  | 62 | 0.16 | CCN(c1cc2c(c(CNC)n1)CN(c1cccc(-c3nncn3C(C)C)n1)C2=O)C(C)C [Example 70, 6-[ethyl(propan-2-yl)amino]-4-[(methylamino)methyl]-2-{6-[4-(propan-2-yl)-4H-1,2,4-triazol-3-yl]pyridin-2-yl}-2,3-dihydro-1H-pyrrolo[3,4-c]pyridin-1-one]
 |  | 168 | 0.51 | CCn1cnnc1-c1cccc(N2Cc3c(cc(C4(C)CC4)nc3CNC)C2=O)n1 [Example 95, 2-[6-(4-ethyl-4H-1,2,4-triazol-3-yl)pyridin-2-yl]-4-[(methylamino)methyl]-6-(1-methylcyclopropyl)-2,3-dihydro-1H-pyrrolo[3,4-c]pyridin-1-one]
 |  | 874 | 0.63 | CCCn1c(C)nnc1-c1cccc(N2Cc3c(cc(C4(C)CC4)nc3CN)C2=O)n1 [Example 128, 4-(aminomethyl)-6-(1-methylcyclopropyl)-2-[6-(5-methyl-4-propyl-4H-1,2,4-triazol-3-yl)pyridin-2-yl]-2,3-dihydro-1H-pyrrolo[3,4-c]pyridin-1-one]
 |  | 186 | 0.34 | CCN(CC)c1cc2c(c(CNC)n1)CN(c1cccc(-c3nnc(C)n3CC)n1)C2=O [Example 97, 6-(diethylamino)-2-[6-(4-ethyl-5-methyl-4H-1,2,4-triazol-3-yl)pyridin-2-yl]-4-[(methylamino)methyl]-2,3-dihydro-1H-pyrrolo[3,4-c]pyridin-1-one]
730 | 1.46 |  |  | CNCc1nc(C2(C)CC2)cc2c1CN(c1cccc(-c3nncn3C(C)C)n1)C2=O [Example 7, 4-[(methylamino)methyl]-6-(1-methylcyclopropyl)-2-{6-[4-(propan-2-yl)-4H-1,2,4-triazol-3-yl]pyridin-2-yl}-2,3-dihydro-1H-pyrrolo[3,4-c]pyridin-1-one]
134 | 0.28 |  |  | CNCc1nc(N2CCC2)cc2c1CN(c1cccc(N3C(=O)OC[C@@H]3C)n1)C2=O [Example 33, 6-(azetidin-1-yl)-4-[(methylamino)methyl]-2-{6-[(4S)-4-methyl-2-oxo-1,3-oxazolidin-3-yl]pyridin-2-yl}-2,3-dihydro-1H-pyrrolo[3,4-c]pyridin-1-one]
396 | 3.2 |  |  | CNCc1nc(C(C)(C)C)cc2c1CN(c1cccc(-c3nncn3C(C)C)n1)C2=O [Example 29, 6-tert-butyl-4-[(methylamino)methyl]-2-{6-[4-(propan-2-yl)-4H-1,2,4-triazol-3-yl]pyridin-2-yl}-2,3-dihydro-1H-pyrrolo[3,4-c]pyridin-1-one]
 |  | 180 | 0.34 | CCN(C)c1cc2c(c(CN)n1)CN(c1cccc(-c3nnc(C)n3CC)n1)C2=O [Example 171]
 |  | 56 | < 0.09 | CCCn1cnnc1-c1cccc(N2Cc3c(cc(N4CCC[C@@H]4C(F)(F)F)nc3CNC)C2=O)n1 [Example 120, 4-[(methylamino)methyl]-2-[6-(4-propyl-4H-1,2,4-triazol-3-yl)pyridin-2-yl]-6-[(2R)-2-(trifluoromethyl)pyrrolidin-1-yl]-2,3-dihydro-1H-pyrrolo[3,4-c]pyridin-1-one]
 |  | 264 | 0.36 | CCCn1c(C)nnc1-c1cccc(N2Cc3c(cc(N(CC)CC)nc3CN)C2=O)n1 [Example 170]
 |  | 345 | 1.11 | CC1(c2cc3c(c(CN)n2)CN(c2cccc(N4C(=O)OC[C@@H]4CF)n2)C3=O)CC1 [Example 85, 4-(aminomethyl)-2-{6-[(4R)-4-(fluoromethyl)-2-oxo-1,3-oxazolidin-3-yl]pyridin-2-yl}-6-(1-methylcyclopropyl)-2,3-dihydro-1H-pyrrolo[3,4-c]pyridin-1-one]
244 | 0.4 |  |  | C[C@H]1COC(=O)N1c1cccc(N2Cc3c(cc(N4CCC4)nc3CN)C2=O)n1 [Example 44, 4-(aminomethyl)-6-(azetidin-1-yl)-2-{6-[(4S)-4-methyl-2-oxo-1,3-oxazolidin-3-yl]pyridin-2-yl}-2,3-dihydro-1H-pyrrolo[3,4-c]pyridin-1-one]
 |  | > 10000 | 0.8 | CCC(CC)n1c(C)nnc1-c1cccc(N2Cc3c(cc(N4CCC[C@@H]4C)nc3CNC)C2=O)n1 [Example 135, 4-[(methylamino)methyl]-2-{6-[5-methyl-4-(pentan-3-yl)-4H-1,2,4-triazol-3-yl]pyridin-2-yl}-6-[(2S)-2-methylpyrrolidin-1-yl]-2,3-dihydro-1H-pyrrolo[3,4-c]pyridin-1-one]
